Results taken from PMC3909768 (Journal of Cancer, 2014).
Several values for one entry are separate records, joined by “and”; a condition that tells them apart may be missing. Equal values may be shown once.

What was measured:
[1] = Plasma protein binding by equilibrium dialysis, rat; format: in vitro ADME; details: Rats plasma, 1 uM, equilibrium dialysis 4h 37C
[2] = tested on: spermatozoon in epididymis; experiment: Concentration of spermatozoon in epididymis of rats, 60 days; format: in vivo, male rats; details: n=6
[3] = tested on: CYP3A; experiment: CYP3A induction in human hepatocytes; format: in vitro ADME; details: for CYP3A induction, in words: 1uM; for CYP 3A induction, Positive control, %: human hepatocytes, 48 hours
[4] = tested on: AR-dependent PSA expression in prostate cancer cells LnCAP; experiment: DHT-induced PSA expression in LnCAP cells; format: cell-based
[5] = target: CYP 2D6 (Homo sapiens, UniProt P10635); experiment: CYP inhibition; format: in vitro ADME; details: concentrations up to 10 uM
CYP 2D6, sequence (P10635 whole entry): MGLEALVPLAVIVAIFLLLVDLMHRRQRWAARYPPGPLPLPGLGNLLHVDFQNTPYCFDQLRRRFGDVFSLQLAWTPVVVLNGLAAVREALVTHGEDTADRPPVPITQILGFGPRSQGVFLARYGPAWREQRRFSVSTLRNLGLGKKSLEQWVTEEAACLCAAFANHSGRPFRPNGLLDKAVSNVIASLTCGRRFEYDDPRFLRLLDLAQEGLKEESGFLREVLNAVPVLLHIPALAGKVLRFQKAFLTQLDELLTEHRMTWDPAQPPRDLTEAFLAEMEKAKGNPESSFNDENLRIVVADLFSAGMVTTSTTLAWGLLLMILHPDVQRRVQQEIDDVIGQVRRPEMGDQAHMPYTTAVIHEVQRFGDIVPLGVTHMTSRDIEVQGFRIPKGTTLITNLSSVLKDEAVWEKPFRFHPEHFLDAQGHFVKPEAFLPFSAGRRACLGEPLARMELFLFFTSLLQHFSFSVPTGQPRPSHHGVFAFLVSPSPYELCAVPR

[6] = Plasma protein binding by equilibrium dialysis, dog; format: in vitro ADME; details: Dogs plasma, 1 uM, equilibrium dialysis 4h 37C
[7] = target: CYP 2C19 (Homo sapiens, UniProt P33261); experiment: CYP inhibition; format: in vitro ADME; details: concentrations up to 10 uM
CYP 2C19, sequence (P33261 whole entry): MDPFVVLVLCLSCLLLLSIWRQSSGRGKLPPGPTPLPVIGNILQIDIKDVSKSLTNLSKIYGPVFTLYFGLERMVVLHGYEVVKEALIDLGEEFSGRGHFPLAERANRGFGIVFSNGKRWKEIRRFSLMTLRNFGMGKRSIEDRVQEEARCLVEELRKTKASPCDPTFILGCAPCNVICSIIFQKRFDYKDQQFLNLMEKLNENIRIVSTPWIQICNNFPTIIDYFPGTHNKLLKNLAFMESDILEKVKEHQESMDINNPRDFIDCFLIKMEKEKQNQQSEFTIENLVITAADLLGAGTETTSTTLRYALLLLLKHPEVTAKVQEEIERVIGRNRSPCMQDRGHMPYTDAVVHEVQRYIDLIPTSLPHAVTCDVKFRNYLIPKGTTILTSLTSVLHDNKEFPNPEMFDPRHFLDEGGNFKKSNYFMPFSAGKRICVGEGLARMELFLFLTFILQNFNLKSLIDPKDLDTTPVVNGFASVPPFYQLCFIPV

[8] = Plasma protein binding by equilibrium dialysis, human; format: in vitro ADME; details: 1 uM, equilibrium dialysis 4h 37C
[9] = Drug concentration in plasma and xenograft tumor after 21-day dosing; details: male, CB17-SCID, mouse, in vivo
[10] = target: T1, CYP 1A2 (Homo sapiens, UniProt P05177); experiment: CYP inhibition; format: in vitro ADME; details: concentrations up to 10 uM
T1 sequence (P05177 1-516): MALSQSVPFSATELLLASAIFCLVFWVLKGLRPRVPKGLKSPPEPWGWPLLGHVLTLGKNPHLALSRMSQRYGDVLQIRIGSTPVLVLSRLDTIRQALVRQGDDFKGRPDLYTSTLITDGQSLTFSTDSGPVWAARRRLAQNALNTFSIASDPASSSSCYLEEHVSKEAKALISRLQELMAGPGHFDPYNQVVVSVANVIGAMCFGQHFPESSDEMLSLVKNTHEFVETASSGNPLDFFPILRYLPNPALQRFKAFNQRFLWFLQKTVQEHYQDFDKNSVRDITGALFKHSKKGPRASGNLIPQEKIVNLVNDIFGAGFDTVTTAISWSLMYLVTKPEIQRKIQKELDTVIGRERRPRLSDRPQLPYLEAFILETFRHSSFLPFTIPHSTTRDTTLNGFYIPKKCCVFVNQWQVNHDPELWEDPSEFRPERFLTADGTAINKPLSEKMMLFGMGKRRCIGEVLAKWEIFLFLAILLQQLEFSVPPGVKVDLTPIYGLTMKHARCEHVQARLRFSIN

[11] = Brain and prostate distribution after single IV in rats; details: rat, in vivo
[12] = tested on: androgen-dependent reproductive organs; experiment: Weight of androgen-dependent reproductive organs in rats, 14 days; format: in vivo, male rats; details: 30, 100 and 300 mg/kg/day po
[13] = target: CYP 3A4 (Homo sapiens, UniProt P08684); experiment: CYP inhibition; format: in vitro ADME; details: concentrations up to 10 uM
CYP 3A4, sequence (P08684 whole entry): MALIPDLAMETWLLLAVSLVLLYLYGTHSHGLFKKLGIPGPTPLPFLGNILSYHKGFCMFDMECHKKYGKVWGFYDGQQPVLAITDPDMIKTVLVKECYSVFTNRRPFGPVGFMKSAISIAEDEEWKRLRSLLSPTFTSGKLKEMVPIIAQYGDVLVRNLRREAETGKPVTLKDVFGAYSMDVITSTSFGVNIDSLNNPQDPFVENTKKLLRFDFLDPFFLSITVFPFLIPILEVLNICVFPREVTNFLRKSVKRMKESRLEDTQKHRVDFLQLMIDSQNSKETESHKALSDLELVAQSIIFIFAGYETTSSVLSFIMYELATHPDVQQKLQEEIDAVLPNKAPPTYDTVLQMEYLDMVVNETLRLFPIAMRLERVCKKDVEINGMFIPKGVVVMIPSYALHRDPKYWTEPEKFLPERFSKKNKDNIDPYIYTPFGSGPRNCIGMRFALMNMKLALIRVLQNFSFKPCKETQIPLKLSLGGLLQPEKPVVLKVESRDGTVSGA

[14] = target: CYP 2C9 (Homo sapiens, UniProt P11712); experiment: CYP inhibition; format: in vitro ADME; details: concentrations up to 10 uM
CYP 2C9, sequence (P11712 whole entry): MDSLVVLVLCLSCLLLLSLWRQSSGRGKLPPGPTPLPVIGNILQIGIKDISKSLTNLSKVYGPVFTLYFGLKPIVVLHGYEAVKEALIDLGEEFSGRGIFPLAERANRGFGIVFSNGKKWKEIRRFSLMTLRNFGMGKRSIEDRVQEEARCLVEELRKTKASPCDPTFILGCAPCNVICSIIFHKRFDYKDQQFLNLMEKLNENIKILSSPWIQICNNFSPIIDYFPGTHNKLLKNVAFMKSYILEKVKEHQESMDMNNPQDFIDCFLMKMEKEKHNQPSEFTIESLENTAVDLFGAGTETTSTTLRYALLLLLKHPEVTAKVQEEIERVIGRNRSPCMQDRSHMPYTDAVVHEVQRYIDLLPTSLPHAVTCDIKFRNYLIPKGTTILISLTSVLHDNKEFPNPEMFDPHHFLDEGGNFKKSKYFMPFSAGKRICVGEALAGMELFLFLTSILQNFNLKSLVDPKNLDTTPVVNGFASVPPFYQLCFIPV

[15] = target: T2, AR (Homo sapiens, UniProt P10275); format: cell-based
T2 sequence (P10275 1-920): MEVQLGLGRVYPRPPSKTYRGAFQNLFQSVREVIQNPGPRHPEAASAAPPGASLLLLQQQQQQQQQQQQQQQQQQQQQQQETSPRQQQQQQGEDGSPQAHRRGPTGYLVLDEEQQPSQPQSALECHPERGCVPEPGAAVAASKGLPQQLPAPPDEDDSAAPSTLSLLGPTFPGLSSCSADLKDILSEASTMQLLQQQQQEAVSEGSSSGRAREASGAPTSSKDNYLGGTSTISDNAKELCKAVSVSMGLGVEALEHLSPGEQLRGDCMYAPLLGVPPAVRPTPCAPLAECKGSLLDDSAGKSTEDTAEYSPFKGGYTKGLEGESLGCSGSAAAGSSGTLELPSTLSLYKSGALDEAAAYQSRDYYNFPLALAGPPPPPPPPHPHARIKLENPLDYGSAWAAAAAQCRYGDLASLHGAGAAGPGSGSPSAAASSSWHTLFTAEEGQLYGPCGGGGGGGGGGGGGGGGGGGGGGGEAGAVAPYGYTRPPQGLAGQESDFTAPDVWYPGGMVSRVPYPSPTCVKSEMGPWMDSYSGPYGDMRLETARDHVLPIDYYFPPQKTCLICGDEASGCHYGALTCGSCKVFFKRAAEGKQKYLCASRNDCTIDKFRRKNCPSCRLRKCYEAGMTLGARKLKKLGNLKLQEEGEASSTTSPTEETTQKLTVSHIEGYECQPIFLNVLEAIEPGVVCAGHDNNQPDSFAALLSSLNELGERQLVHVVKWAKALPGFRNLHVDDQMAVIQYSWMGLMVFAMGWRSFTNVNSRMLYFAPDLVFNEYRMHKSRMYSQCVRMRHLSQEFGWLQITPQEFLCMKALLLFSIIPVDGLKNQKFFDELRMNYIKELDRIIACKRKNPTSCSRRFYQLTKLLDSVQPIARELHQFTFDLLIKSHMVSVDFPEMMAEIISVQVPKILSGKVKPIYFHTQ

[16] = Rat pharmacokinetics; details: for C24h: after 14 administrations; for AUC(0-inf) / k el / MRT inf / concentration at 24 h / Cmax / Tmax / half-life: male, Sprague Dawley, rat, in vivo
[17] = Dog pharmacokinetics; format: in vivo, male beagle dogs; details: multiple oral doses in dogs
[18] = tested on: LnCaP-Z2 tumors; experiment: LnCaP-Z2 xenograft antitumor efficacy; format: in vivo, male CB17-SCID mice
[19] = target: T3, AR-LBD (Homo sapiens, UniProt P10275); experiment: biochemical
T3 sequence (P10275 669-900 limits assumed): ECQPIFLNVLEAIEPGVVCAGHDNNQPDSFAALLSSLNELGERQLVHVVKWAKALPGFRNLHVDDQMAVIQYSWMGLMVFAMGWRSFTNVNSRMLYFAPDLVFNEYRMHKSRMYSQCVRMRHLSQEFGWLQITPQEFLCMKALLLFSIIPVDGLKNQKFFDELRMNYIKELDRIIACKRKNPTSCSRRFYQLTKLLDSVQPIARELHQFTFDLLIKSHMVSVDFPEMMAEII

[20] = tested on: GABA receptors; experiment: [3H]GABA binding, rat cerebral cortex membranes; details: 10uM
[21] = Plasma protein binding by equilibrium dialysis, mouse; format: in vitro ADME; details: Mice plasma, 1 uM, equilibrium dialysis 4h 37C
[22] = target: GABA receptors; details: read-out: IC50, GABA receptors; ref [6]; cited from earlier work
[23] = 2 mg/kg, Prostate, single IV 2 mg/kg
[24] = 2 mg/kg, brain, single IV 2 mg/kg
[25] = 2 mg/kg, plasma, single IV 2 mg/kg
[26] = 1 mg/kg, Prostate, single IV 1 mg/kg
[27] = 1 mg/kg, brain, single IV 1 mg/kg
[28] = 1 mg/kg, plasma, single IV 1 mg/kg

CNC(=O)c1ccc(N2C(=S)N(c3ccc(C#N)c(C(F)(F)F)c3)C(=O)[C@]23CCOC3)cc1F [ONC1-13B, 4-[(R)-3-(4-Cyano-3-trifluoromethyl-phenyl)-4-oxo-2-thioxo-7-oxa-1,3-diaza-spiro[4.4]non-1-yl]-2-fluoro-N-methyl-benzamide]
Bound fraction [1]: 89.7% | Concentration of spermatozoon in epididymis, M±m ([2]; 30 mg/kg po): 29,00 ± 2,73 х 10^6/ml | Concentration of spermatozoon in epididymis, M±m ([2]; 300 mg/kg po): 16,00 ± 2,37 х 10^6/ml | CYP3A induction, in words [3]: no activity | CYP 3A induction, Positive control, % ([3]; 1 uM, listed as ONC1-0013B): 0.0±2.0% and 3.3±0.6% | fold less potent in CYP3A induction compared to MDV3100 and ARN-509 ([3]; 10uM): ~ 2 fold | CYP 3A induction, Positive control, % ([3]; 10 uM, listed as ONC1-0013B): 51.3±3.5% and 42.0±6.1% | fold more efficient than bicalutamide in inhibiting DHT-induced PSA expression [4]: around 10 fold | inhibition of CYP 2D6 activity [5]: doesn`t inhibit | Bound fraction [6]: 89.5% | inhibition of CYP 2C19 activity [7]: doesn`t inhibit | Bound fraction [8]: 89.3% | Kp at 24 h ([9]; 20 mg/kg): 0.78 ± 0.08 | concentration at 24 h ([9]; 20 mg/kg): 76.2 ng/mL and 52.6 ng/g | Kp at 24 h ([9]; 50 mg/kg): 0.77 ± 0.13 | concentration at 24 h ([9]; 50 mg/kg): 154 ng/mL and 138 ng/g | Kp at 16 h ([9]; po, 20 mg/kg): 0.72 ± 0.05 | concentration at 16 h ([9]; po, 20 mg/kg): 456 ng/mL and 442 ng/g | inhibition of CYP 1A2 activity [10]: doesn`t inhibit | Kp ([11]; 2 mg/kg): 1.2 to 1.6 | Kp at 30 min ([11]; 2 mg/kg): 1.55 ± 0.08 | Kp at 120 min ([11]; 2 mg/kg): 1.2 ± 0.36 | concentration at 30 min [11, 23]: 1160 ± 164 ng/g | concentration at 120 min [11, 23]: 625 ± 108 ng/g | concentration at 30 min [11, 24]: 145 ± 22 ng/g | concentration at 120 min [11, 24]: 89 ± 10 ng/g | concentration at 30 min [11, 25]: 746 ± 104 ng/mL | concentration at 120 min [11, 25]: 522 ± 57 ng/mL | weight of prostate, epididymis and seminal vesicles, in words [12]: significantly and dose-dependently decreases | inhibition of CYP 3A4 activity [13]: doesn`t inhibit | inhibition of CYP 2C9 activity [14]: doesn`t inhibit | inhibition of 6a-Fluotestosterone induced AR nuclear translocation, in words [15]: completely inhibit | C24h ([16]; Multiple PO 100 mg/kg): 2 794 ng/mL | C24h ([16]; Multiple PO 300 mg/kg): 2 122 ng/mL | Vss_obs ([16]; Single IV 1 mg/kg): 2.0 L/kg | Сl ([16]; Single IV 1 mg/kg): 6.4 mL/min/kg | AUC(0-inf) ([16]; iv, 1 mg/kg): 2.57 µg·h/mL | k el ([16]; iv, 1 mg/kg): 4.64e-05 s⁻¹ | MRT inf ([16]; po, 5 mg/kg): 7 h | concentration at 24 h ([16]; po, 5 mg/kg): 51 ng/mL | k el ([16]; po, 5 mg/kg): 3.61e-05 s⁻¹ | AUC(0-inf) ([16]; po, 30 mg/kg): 95 µg·h/mL | Cmax ([16]; po, 30 mg/kg): 7160 ng/mL | MRT inf ([16]; po, 30 mg/kg): 4 h | Tmax ([16]; po, 30 mg/kg): 4 h | concentration at 24 h ([16]; po, 30 mg/kg): 159 ng/mL | half-life ([16]; po, 30 mg/kg): 4 h | k el ([16]; po, 30 mg/kg): 5.28e-05 s⁻¹ | AUC(0-inf) ([16]; po, 100 mg/kg): 268 µg·h/mL | Cmax ([16]; po, 100 mg/kg): 16400 ng/mL | MRT inf ([16]; po, 100 mg/kg): 10 h | Tmax ([16]; po, 100 mg/kg): 4 h | half-life ([16]; po, 100 mg/kg): 8 h | k el ([16]; po, 100 mg/kg): 2.5e-05 s⁻¹ | AUC(0-inf) ([16]; po, 300 mg/kg): 314 µg·h/mL | Cmax ([16]; po, 300 mg/kg): 20500 ng/mL | MRT inf ([16]; po, 300 mg/kg): 7 h | Tmax ([16]; po, 300 mg/kg): 4 h | half-life ([16]; po, 300 mg/kg): 6 h | k el ([16]; po, 300 mg/kg): 3.06e-05 s⁻¹ | steady-state reached after [17]: 10 administrations | antitumor efficacy, in words ([18]; 20 mg/kg twice daily): highest antitumor efficacy | tumors regressed ([18]; 20 mg/kg twice daily po, 21 days): 4 of 8 | antitumor efficacy, in words ([18]; once daily at 20 or 50 mg/kg, vs MDV3100 10mg/kg once daily): comparable to MDV3100 | IC50 [19]: 19.9 µM | inhibition of [3H]GABA specific binding [20]: 42% | Bound fraction [21]: 90.7%

CNC(=O)c1ccc(N2C(=S)N(c3cnc(C#N)c(C(F)(F)F)c3)C(=O)C23CCC3)cc1F [ARN-509]
CYP3A induction, in words [3]: still active | CYP 3A induction, Positive control, % ([3]; 1 uM): 16.3±2.5% | CYP 3A induction, Positive control, % ([3]; 10 uM): 102.7±13.0% | Kp at 30 min ([11]; 1 mg/kg): 1.94 ± 0.24 | Kp at 120 min ([11]; 1 mg/kg): 3.15 ± 0.94 | concentration at 30 min [11, 26]: 487 ± 73 ng/g | concentration at 120 min [11, 26]: 482 ± 120 ng/g | concentration at 30 min [11, 27]: 241 ± 21 ng/g | concentration at 120 min [11, 27]: 176 ± 31 ng/g | concentration at 30 min [11, 28]: 251 ± 29 ng/mL | concentration at 120 min [11, 28]: 153 ± 10 ng/mL | IC50 [22]: 3 µM
